Where a chain is given by its changes, count along the chain named. Values joined by “and” are separate entries in the source; they are usually repeats but may differ in a detail not shown here. Equal entries are not always repeated. Where two headings read alike, the source gives them in different places.
What was measured:
[1] = biological target: T1, OCT1 WT (Homo sapiens, UniProt O15245); test: Uptake screening (transport ratio over empty vector), HEK293 cells overexpressing OCT1 WT; assay type: cell-based; set-up: expressed in transfected cells;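 also: intracellular substrate levels quantified by HPLC–tandem mass spectrometry after uptake in HBSS+ buffer at 37 °C, stable Flp-In HEK293 lines, fold change versus empty vector–transfected cells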
T1 sequence (O15245 1-554): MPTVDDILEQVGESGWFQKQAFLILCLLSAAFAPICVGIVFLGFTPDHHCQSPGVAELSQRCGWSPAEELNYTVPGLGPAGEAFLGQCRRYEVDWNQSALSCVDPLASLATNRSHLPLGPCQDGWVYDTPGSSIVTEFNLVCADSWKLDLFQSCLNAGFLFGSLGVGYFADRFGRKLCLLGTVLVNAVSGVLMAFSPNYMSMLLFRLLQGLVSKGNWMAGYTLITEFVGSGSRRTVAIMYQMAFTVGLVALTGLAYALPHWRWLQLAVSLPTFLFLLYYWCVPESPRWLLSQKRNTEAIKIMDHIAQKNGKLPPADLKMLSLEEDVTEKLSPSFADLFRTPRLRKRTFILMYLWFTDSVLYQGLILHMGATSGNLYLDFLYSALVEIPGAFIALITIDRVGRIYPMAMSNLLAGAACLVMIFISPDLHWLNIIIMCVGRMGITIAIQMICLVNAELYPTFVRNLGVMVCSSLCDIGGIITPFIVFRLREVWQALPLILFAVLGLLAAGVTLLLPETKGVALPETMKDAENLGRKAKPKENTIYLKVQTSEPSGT
Procedure: (§1) All experiments were carried out using transporter-overexpressing HEK293 cells. […] Cells were cultivated in Dulbecco’s Modified Eagle’s medium supplemented with 10% fetal calf serum, 100 U/ml penicillin, and 100 μg/ml streptomycin. Cells were passaged twice a week and kept in culture for no longer than 30 passages.
(§2) For uptake studies, 300,000 HEK293 cells were plated in each well of 24-well plates precoated with poly-D-lysine 48 prior to the experiment. On the day of the experiment, cells were washed once with prewarmed to 37 °C HBSS+ (Hank’s balanced salt solution supplemented with 10 mM Hepes, both Sigma-Aldrich). […] Uptake was stopped by adding ice-cold HBSS+ and cells were washed twice with ice-cold buffer before cell lysis was done using 80% acetonitrile containing an appropriate internal standard for eventual mass spectrometry. Relative quantification was done by comparison of transporter-overexpressing cells to empty vector–transfected controls. For uptake kinetic experiments, cells were incubated with increasing concentrations of substrate dissolved in HBSS+. Absolute quantification was done later by comparison to a standard curve in lysis buffer with known concentration.
(§3) Intracellular drug concentrations were detected and quantified by HPLC coupled to mass spectrometry. […] Substance-specific conditions were used to adjust the retention times of the analytes.
(§4) Transport ratios were determined as relative fold-increase of the uptake in transporter-overexpressing cells over empty vector–transfected control cells. For transport kinetic experiments, absolute substrate quantification was done by signal comparison to a standard curve with known concentrations. Net uptake was then determined by subtracting the uptake into empty vector–transfected cells from transporter-overexpressing cells. […] Vmax defines the maximum transport velocity, Km refers to the substrate concentration required to reach half vmax. The intrinsic clearance Clint is the ratio of vmax over Km.

[2] = biological target: T2, OCT1 Phe244Ala variant (Homo sapiens, UniProt O15245, F244A); test: Uptake screening (transport ratio over empty vector), HEK293 cells overexpressing OCT1 Phe244Ala variant; assay type: cell-based; set-up: expressed in transfected cells;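 also: stably transfected HEK293 cells, intracellular substrate quantified by HPLC-tandem mass spectrometry in cell lysates, uptake in HBSS+ buffer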
T2 sequence (O15245 1-554 F244A): T1 sequence (O15245 1-554) with F244A
Procedure: as §1, §2, §3, §4

[3] = uptake ratio of OCT1 WT-overexpressing HEK293 cells over empty vector
[4] = Phe244Ala uptake relative to OCT1 WT
[5] = uptake ratio of OCT1 Phe244Ala-overexpressing HEK293 cells over empty vector
[6] = uptake ratio over empty vector, HEK293 cells overexpressing OCT1 WT
[7] = uptake ratio over empty vector, HEK293 cells overexpressing OCT1 Phe244Ala
[8] = Phe244Ala uptake relative to WT

Row | Compound | relative_Phe244Ala_uptake_in% [2, 4] | Mean_transport_ratio_WT [1, 6] | Mean_transport_ratio_Phe244Ala [2, 7] | other results
1 | CC(C)(C)NCC(O)COc1cccc2c1CC(O)C(O)C2 (stereo not drawn) [Nadolol] | 142.415% |  |  | Mean_transport_ratio_WT [1, 3]: 9.921; Mean_transport_ratio_Phe244Ala [2, 5]: 13.705
2 | C[N+]1(C)CCCC(OC(=O)C(O)(c2ccccc2)c2ccccc2)C1 (stereo not drawn) [Mepenzolate] | 130.959% and 121.132% |  |  | Mean_transport_ratio_WT [1, 3]: 28.031 and 34.795; Mean_transport_ratio_Phe244Ala [2, 5]: 36.4 and 41.936
3 | C=CCN1CCCC1CNC(=O)c1cc(S(N)(=O)=O)cc(OC)c1OC (stereo not drawn) [Veralipride] | 478.904% | 1.907 | 5.345 | 
4 | CNCCc1ccc(O)cc1 [N-Methyl-p-tyramine] | 12.133% |  |  | Mean_transport_ratio_WT [1, 3]: 6.673; Mean_transport_ratio_Phe244Ala [2, 5]: 1.688
5 | CN(C)CCc1c[nH]c2ccc(Cn3cncn3)cc12 [Rizatriptan] | 26.058% | 7.577 | 2.714 | 
6 | NCCc1c[nH]c2ccccc12 [Tryptamin] | 9.229% | 2.619 | 1.149 | 
7 | CN1[C@@H]2CC[C@H]1C[C@@H](OC(=O)c1c[nH]c3ccccc13)C2 [Tropisetron] | 47.074% | 2.206 | 1.568 | 
8 | NCCc1cccc(O)c1 [m-Tyramine] | 13.730% | 6.001 | 1.687 | 
9 | CCN[C@@H](C)Cc1cccc(C(F)(F)F)c1 [(S)-Fenfluramine] |  |  |  | Mean_transport_ratio_WT [1]: 1.065; Mean_transport_ratio_Phe244Ala [2]: 1.119; relative_Phe244Ala_uptake_in% [2]: 183.841%
10 | Cc1nccn1CC1CCc2c(c3ccccc3n2C)C1=O (stereo not drawn) [Ondansetron] | 92.867% | 1.554 | 1.514 | 
11 | CC[N+](CC)(CC)Cc1ccccc1 [Benzyltriethylammonium] |  | 56.17 | 46.399 | relative_Phe244Ala_uptake_in% [2, 8]: 82.289%
12 | CC(C)NCC(O)c1ccc(NS(C)(=O)=O)cc1 (stereo not drawn) [Sotalol] | 43.617% | 5.197 | 2.831 | 
13 | CN(C)CCc1c[nH]c2ccc(C[C@@H]3COC(=O)N3)cc12 [(R)-Zolmitriptan] |  |  |  | Mean_transport_ratio_WT [1]: 34.392; Mean_transport_ratio_Phe244Ala [2]: 13.515; relative_Phe244Ala_uptake_in% [2]: 37.478%
14 | Cc1cc(C(C)(C)C)cc(C)c1CC1=NCCN1 [Xylometazoline] | 242.447% | 2.256 | 4.046 | 
15 | (-)-Sparteine |  |  |  | Mean_transport_ratio_WT [1]: 5.032; Mean_transport_ratio_Phe244Ala [2]: 4.411; relative_Phe244Ala_uptake_in% [2]: 84.604%
16 | CCCCNC(=N)NC(=N)N [Buformin] |  | 33.648 | 14.865 | relative_Phe244Ala_uptake_in% [2, 8]: 42.469%
17 | CCN(CC)CCNC(=O)c1ccc(NS(C)(=O)=O)cc1 [Sematilid] | 52.483% | 3.577 | 2.352 | 
18 | CC[C@@H](CO)NCCN[C@@H](CC)CO [(S,S)-Ethambutol] |  |  |  | Mean_transport_ratio_WT [1]: 21.59; Mean_transport_ratio_Phe244Ala [2]: 11.185; relative_Phe244Ala_uptake_in% [2]: 49.465%
19 | COc1ccc(CC(C)(C)NC[C@H](O)c2cc(O)cc3c2OCC(=O)N3)cc1 [Olodaterol] | 139.279% | 6.02 | 7.992 | 
20 | CC(C)(C)NCC(O)c1ccc(O)c(CO)n1 (stereo not drawn) [Pirbuterol] | 79.364% | 68.047 | 54.212 | 
21 | CC(C)(C)NCC(O)c1ccc(O)c(O)c1 (stereo not drawn) [Colterol] |  | 5.025 | 2.364 | relative_Phe244Ala_uptake_in% [2, 8]: 33.880%
22 | CNCCc1c[nH]c2ccc(O)cc12 [N-Methylserotonin] | 24.160% |  |  | Mean_transport_ratio_WT [1, 3]: 31.114; Mean_transport_ratio_Phe244Ala [2, 5]: 8.275

— publication PMC11602988 (The Journal of Biological Chemistry, 2024)
